Measured values published in patent publication US20260159539.
Read-outs that look alike come from different tables or passages of the source.

## CCn1c(-c2cc(N3CCN(C(=O)OCc4ccccc4)CC3)cnc2[C@H](C)OC)c2c3nc(ccc31)-c1cc(cc(O[Si](C(C)C)(C(C)C)C(C)C)c1)C[C@H](NC(=O)OC(C)(C)C)C(=O)N1CCC[C@H](N1)C(=O)OCC(C)(C)C2
From CCn1c(-c2cc(N3CCN(C(=O)OCc4ccccc4)CC3)cnc2[C@H](C)OC)c(CC(C)(C)CO)c2nc(-c3cc(C[C@H](NC(=O)OC(C)(C)C)C(=O)N4CCC[C@@H](C(=O)O)N4)cc(O[Si](C(C)C)(C(C)C)C(C)C)c3)ccc21, ester bond, 18-membered ring, EDCI/HOBt/DIEA, DCM, 32.0 mM, 25.0 °C, 16.0 h, 2 steps
  ring closure, isolated yield: 42%

## CCOC(=O)[C@@H]1Cc2nc(Br)nn2/C=C/[C@@H]2[C@H](CCN2C(=O)OC(C)(C)C)C(=O)N(C)[C@@H](C(C)C)C(=O)N1
From C=C[C@@H]1[C@@H](C(=O)N(C)[C@H](C(=O)N[C@@H](Cc2nc(Br)nn2C=C)C(=O)OCC)C(C)C)CCN1C(=O)OC(C)(C)C, rcm bond, 13-membered ring, Grubbs G2/Ti(OiPr)4, DCM, 15.3 mM, 45.0 °C, 12.0 h
  ring closure, isolated yield: 27%

## CCn1c(-c2cc(N3CCN(C(=O)OCc4ccccc4)CC3)cnc2[C@H](C)OC)c2c3cc(ccc31)-c1cc(cc(O[Si](C(C)C)(C(C)C)C(C)C)c1)C[C@H](NC(=O)OC(C)(C)C)C(=O)N1CCC[C@H](N1)C(=O)OCC(F)(F)C2
From CCn1c(-c2cc(N3CCN(C(=O)OCc4ccccc4)CC3)cnc2[C@H](C)OC)c(CC(F)(F)CO)c2cc(-c3cc(C[C@H](NC(=O)OC(C)(C)C)C(=O)N4CCC[C@@H](C(=O)O)N4)cc(O[Si](C(C)C)(C(C)C)C(C)C)c3)ccc21, ester bond, 18-membered ring, EDCI/HOBt/DIEA, DCM, 32.0 mM, 25.0 °C, 16.0 h, 2 steps
  ring closure, isolated yield: 75%

## CCn1c(-c2cc(OCc3ccccc3)cnc2[C@H](C)OC)c2c3cc(ccc31)-c1cc(cc(O[Si](C(C)C)(C(C)C)C(C)C)c1)C[C@H](NC(=O)OC(C)(C)C)C(=O)N1CCC[C@H](N1)C(=O)OCC(C)(C)C2
From CCn1c(-c2cc(OCc3ccccc3)cnc2[C@H](C)OC)c(CC(C)(C)CO)c2cc(-c3cc(C[C@H](NC(=O)OC(C)(C)C)C(=O)N4CCC[C@@H](C(=O)O)N4)cc(O[Si](C(C)C)(C(C)C)C(C)C)c3)ccc21, ester bond, 18-membered ring, EDCI/HOBt/DIPEA, DCM, 9.8 mM, 25.0 °C, 16.0 h, 4 steps
  ring closure, isolated yield: 67%

## COC(=O)[C@@H]1Cc2cc(I)cc(c2)OC[C@@H]2[C@H](CCN2C(=O)OC(C)(C)C)C(=O)N(C)[C@@H](C(C)C)C(=O)N1
From COC(=O)[C@H](Cc1cc(O)cc(I)c1)NC(=O)[C@H](C(C)C)N(C)C(=O)[C@H]1CCN(C(=O)OC(C)(C)C)[C@@H]1COS(=O)(=O)c1ccc(C)cc1, ether bond, 14-membered ring, K2CO3/KI, DMF, 12.2 mM, 80.0 °C, 2.0 h
  ring closure, isolated yield: 66%

## COC(=O)[C@@H]1Cc2cc(Br)cc(c2)CC[C@@H]2[C@H](CCN2C(=O)OC(C)(C)C)C(=O)N(C)[C@@H](C(C)C)C(=O)N1
From COC(=O)[C@@H](N)Cc1cc(Br)cc(CC[C@@H]2[C@@H](C(=O)N(C)[C@H](C(=O)O)C(C)C)CCN2C(=O)OC(C)(C)C)c1, amide bond, 14-membered ring, HATU/DIEA, DMF, 16.0 mM, 25.0 °C, 1.0 h, 2 steps
  ring closure, isolated yield: 34%

## CCn1c(-c2cc(Oc3cccnc3)cnc2[C@H](C)OC)c2c3cc(ccc31)-c1cc(cc(O[Si](C(C)C)(C(C)C)C(C)C)c1)C[C@H](NC(=O)OC(C)(C)C)C(=O)N1CCC[C@H](N1)C(=O)OCC(C)(C)C2
From CCn1c(-c2cc(Oc3cccnc3)cnc2[C@H](C)OC)c(CC(C)(C)CO)c2cc(-c3cc(C[C@H](NC(=O)OC(C)(C)C)C(=O)N4CCC[C@@H](C(=O)O)N4)cc(O[Si](C(C)C)(C(C)C)C(C)C)c3)ccc21, ester bond, 18-membered ring, EDCI/HOBt/DIPEA, DCM, 9.9 mM, 25.0 °C, 12.0 h, 4 steps
  ring closure, isolated yield: 67%

## CO[C@@H](C)c1ncc(C2CCN(C(=O)OCc3ccccc3)CC2)cc1-c1c2c3cc(ccc3n1CC(F)(F)F)-c1cc(cc(O[Si](C(C)C)(C(C)C)C(C)C)c1)C[C@H](NC(=O)OC(C)(C)C)C(=O)N1CCC[C@H](N1)C(=O)OCC(C)(C)C2
From CO[C@@H](C)c1ncc(C2CCN(C(=O)OCc3ccccc3)CC2)cc1-c1c(CC(C)(C)CO)c2cc(-c3cc(C[C@H](NC(=O)OC(C)(C)C)C(=O)N4CCC[C@@H](C(=O)O)N4)cc(O[Si](C(C)C)(C(C)C)C(C)C)c3)ccc2n1CC(F)(F)F, ester bond, 18-membered ring, EDCI/HOBt/DIEA, DCM, 8.4 mM, 25.0 °C, 16.0 h, 3 steps
  ring closure, isolated yield: 42%

## CCOC(=O)[C@@H]1Cc2nc(Br)sc2C=C[C@@H]2[C@H](CCN2C(=O)OC(C)(C)C)C(=O)N(C)[C@@H](C(C)C)C(=O)N1
From C=Cc1sc(Br)nc1C[C@H](NC(=O)[C@H](C(C)C)N(C)C(=O)[C@H]1CCN(C(=O)OC(C)(C)C)[C@@H]1C=C)C(=O)OCC, rcm bond, 13-membered ring, Grubbs G2/Ti(OiPr)4, DCM, 28.3 mM, 45.0 °C, 16.0 h
  ring closure, isolated yield: 20%

## CCc1c(-c2cc(N3CCN(C(=O)OCc4ccccc4)CC3)cnc2[C@H](C)OC)n2c3cc(ccc13)-c1cc(cc(O[Si](C(C)C)(C(C)C)C(C)C)c1)C[C@H](NC(=O)OC(C)(C)C)C(=O)N1CCC[C@H](N1)C(=O)OCC(C)(C)C2
From CCc1c(-c2cc(N3CCN(C(=O)OCc4ccccc4)CC3)cnc2[C@H](C)OC)n(CC(C)(C)CO)c2cc(-c3cc(C[C@H](NC(=O)OC(C)(C)C)C(=O)N4CCC[C@@H](C(=O)O)N4)cc(O[Si](C(C)C)(C(C)C)C(C)C)c3)ccc12, ester bond, 18-membered ring, EDCI/HOBt/DIEA, DCM, 8.8 mM, 25.0 °C, 16.0 h, 2 steps
  ring closure, isolated yield: 48%

## CCn1c(-c2cc(N3CCN(C(=O)OCc4ccccc4)CC3)cnc2[C@H](C)OC)c2c3cc(ccc31)-c1cc(cc(O[Si](C(C)C)(C(C)C)C(C)C)c1)C[C@H](NC(=O)OC(C)(C)C)C(=O)N1CCC[C@H](N1)C(=O)OCC(C)(C)C2
From CCn1c(-c2cc(N3CCN(C(=O)OCc4ccccc4)CC3)cnc2[C@H](C)OC)c(CC(C)(C)CO)c2cc(-c3cc(C[C@H](NC(=O)OC(C)(C)C)C(=O)N4CCC[C@@H](C(=O)O)N4)cc(O[Si](C(C)C)(C(C)C)C(C)C)c3)ccc21, ester bond, 18-membered ring, EDCI/HOBt/DIEA, DCM, 9.3 mM, 25.0 °C, 16.0 h
  ring closure, isolated yield: 63%

## tert-butyl (3aS,6S,9S,15S,32aS)-6-isopropyl-21-(2-((S)-1-methoxyethyl)-5-(4-(oxetan-3-yl)piperazin-1-yl)pyridin-3-yl)-5,19,19-trimethyl-4,7,10,16-tetraoxo-22-(2,2,2-trifluoroethyl)-2,3,3a,4,5,6,7,8,9,10,13,14,15,16,18,19,20,22,32,32a-icosahydro-1H,12H-11,15-epimino-23,25-etheno-9,28-methano-26,30-(metheno)dipyrrolo[2,3-c:3′,4′-v][1,18]dioxa[6,9,12]triazacyclotriacontine-1-carboxylate
Ether bond, 14-membered ring
  ring closure, isolated yield: 76%

## CCn1c(-c2cc(N3CCN(C4CC4)CC3)cnc2[C@H](C)OC)c(CC(C)(C)CO)c2cc(-c3cc4cc(c3)C[C@@H](C(=O)OC)NC(=O)[C@H](C(C)C)N(C)C(=O)[C@H]3CCCN(C(C)=O)N3CC4)ccc21
From CCn1c(-c2cc(N3CCN(C4CC4)CC3)cnc2[C@H](C)OC)c(CC(C)(C)CO)c2cc(-c3cc(CCN4[C@@H](C(=O)O)CCCN4C(C)=O)cc(C[C@H](NC(=O)[C@@H](NC)C(C)C)C(=O)OC)c3)ccc21, amide bond, 14-membered ring, COMU/DIPEA, DMF, 54.0 mM, 25.0 °C, 1.0 h, 2 steps
  ring closure, isolated yield: 42%

## COC(=O)[C@@H]1Cc2cc(Cl)cc(c2)CCN2[C@H](CC[C@H]2C(=O)N(C)C)C(=O)N(C)[C@@H](C(C)C)C(=O)N1
From COC(=O)[C@@H](N)Cc1cc(Br)cc(CCN2[C@@H](C(=O)N(C)[C@H](C(=O)O)C(C)C)CC[C@H]2C(=O)N(C)C)c1, amide bond, 14-membered ring, HATU/DIEA, DMF, 17.1 mM, 25.0 °C, 1.0 h, 2 steps
  ring closure, isolated yield: 44%
